Measurements published in patent publication US3960833A, “Butirosin A 3",5"-O-isopropylidene derivatives” (Bristol-Myers Company, priority 1975, dated 1976).
≈ marks a conversion by molar mass, not a printed value.

How the values were obtained:
Assay in all cases: MIC by Steers agar-dilution method on Mueller-Hinton medium
Format in all cases: cell-based
[1] = test system: Ps. aeruginosa A9930; conditions: Pseudomonas aeruginosa, A9930
Source text: (§1) Illustrated below is a table showing the minimal inhibitory concentrations (MIC's) of butirosin A, 4'-deoxybutirosin A and compound 11 (BB-K186) against a variety of gram-positive and gram-negativebacteria as obtained by the Steers agar-dilution method on Mueller-Hinton medium.

[2] = test system: E. coli ML1630; conditions: Escherichia coli, ML1630
Source text: as §1

[3] = test system: K. pneumoniae D11; conditions: Klebsiella pneumoniae, D11
Source text: as §1

[4] = test system: K. pneumoniae 22-3038; conditions: Klebsiella pneumoniae, 223038
Source text: as §1

[5] = test system: Ps. aeruginosa No. 130; conditions: Pseudomonas aeruginosa, NO.130
Source text: as §1

[6] = test system: E. coli A20107; conditions: Escherichia coli, A20107
Source text: as §1

[7] = test system: Prov. stuartii A20894; conditions: Providencia stuartii, A20894
Source text: as §1

[8] = test system: Ser. marcescens A21247; conditions: Serratia marcescens, A21247
Source text: as §1

[9] = test system: S. aureus Smith; conditions: Staphylococcus aureus
Source text: as §1

[10] = test system: Ps. aeruginosa A20601; conditions: Pseudomonas aeruginosa, A20601
Source text: as §1

[11] = test system: E. coli PO1495; conditions: Escherichia coli
Source text: as §1

[12] = test system: Ps. aeruginosa A20635; conditions: Pseudomonas aeruginosa, A20635
Source text: as §1

[13] = test system: S. aureus D137; conditions: Staphylococcus aureus, D137
Source text: as §1

[14] = test system: Ps. aeruginosa GN-315; conditions: Pseudomonas aeruginosa, GN315
Source text: as §1

[15] = test system: Pr. vulgaris A9436; conditions: Proteus vulgaris, A9436
Source text: as §1

[16] = test system: Ps. aeruginosa A20896; conditions: Pseudomonas aeruginosa, A20896
Source text: as §1

[17] = test system: E. coli A20732; conditions: Escherichia coli, A20732
Source text: as §1

[18] = test system: E. coli NR79/W677; conditions: Escherichia coli
Source text: as §1

[19] = test system: Pr. mirabilis A9554; conditions: Proteus mirabilis, A9554
Source text: as §1

[20] = test system: Ent. cloacae A20364; conditions: Enterobacter cloacae, A20364
Source text: as §1

[21] = test system: S. aureus D193; conditions: Staphylococcus aureus, D193
Source text: as §1

[22] = test system: S. aureus A20239; conditions: Staphylococcus aureus, A20239
Source text: as §1

[23] = test system: S. aureus D133; conditions: Staphylococcus aureus, D133
Source text: as §1

[24] = test system: E. coli NIHJ; conditions: Escherichia coli
Source text: as §1

[25] = test system: E. coli JR66/W677; conditions: Escherichia coli
Source text: as §1

[26] = test system: Ent. cloacae A21006; conditions: Enterobacter cloacae, A21006
Source text: as §1

[27] = test system: Ser. marcescens A20019; conditions: Serratia marcescens, A20019
Source text: as §1

[28] = test system: E. coli R5; conditions: Escherichia coli, R5
Source text: as §1

[29] = test system: Pr. morganii A20031; conditions: Morganella morganii, A20031
Source text: as §1

[30] = test system: E. coli JR35/C600; conditions: Escherichia coli
Source text: as §1

[31] = test system: E. coli A20895; conditions: Escherichia coli, A20895
Source text: as §1

[32] = test system: Pseudomonas sp. A20621; conditions: Pseudomonas, SP.A20621
Source text: as §1

NCC[C@H](O)C(=O)N[C@@H]1C[C@H](N)[C@@H](O[C@H]2O[C@H](CN)[C@@H](O)[C@H](O)[C@H]2N)[C@H](O[C@@H]2O[C@H](CO)[C@H](O)[C@H]2O)[C@H]1O [Bu-1709A1, butirosin A]
MIC [1]: 6.3 µg/mL (≈ 11.3 µM)
MIC [2]: 3.1 µg/mL (≈ 5.58 µM)
MIC [3]: 0.8 µg/mL (≈ 1.44 µM)
MIC [4]: > 100 µg/mL
MIC [5]: 25 µg/mL (≈ 45 µM)
MIC [6]: 50 µg/mL (≈ 90 µM)
MIC [7]: > 100 µg/mL
MIC [8]: 6.3 µg/mL (≈ 11.3 µM)
MIC [9]: 0.8 µg/mL (≈ 1.44 µM)
MIC [10]: 50 µg/mL (≈ 90 µM)
MIC [11]: 1.6 µg/mL (≈ 2.88 µM)
MIC [12]: > 100 µg/mL
MIC [13]: 25 µg/mL (≈ 45 µM)
MIC [14]: > 100 µg/mL
MIC [15]: 0.4 µg/mL (≈ 0.72 µM)
MIC [16]: > 100 µg/mL
MIC [17]: 1.6 µg/mL (≈ 2.88 µM)
MIC [18]: > 100 µg/mL
MIC [19]: 1.6 µg/mL (≈ 2.88 µM)
MIC [20]: 1.6 µg/mL (≈ 2.88 µM)
MIC [21]: 3.1 µg/mL (≈ 5.58 µM)
MIC [22]: 25 µg/mL (≈ 45 µM)
MIC [23]: 6.3 µg/mL (≈ 11.3 µM)
MIC [24]: 1.6 µg/mL (≈ 2.88 µM)
MIC [25]: 100 µg/mL (≈ 180 µM)
MIC [26]: > 100 µg/mL
MIC [27]: 6.3 µg/mL (≈ 11.3 µM)
MIC [28]: 3.1 µg/mL (≈ 5.58 µM)
MIC [29]: 1.6 µg/mL (≈ 2.88 µM)
MIC [30]: 0.8 µg/mL (≈ 1.44 µM)
MIC [31]: 3.1 µg/mL (≈ 5.58 µM)
MIC [32]: 100 µg/mL (≈ 180 µM)
